Measurements as given in US20260206761A1, “HETEROARYL-TRIAZOLE COMPOUNDS AS PESTICIDES” (Bayer Aktiengesellschaft, priority 2019, published 2026).

Tests used:
Format in all cases: in vivo
[1] = tested on: Aedes aegypti strain MONHEIM; experiment: Aedes aegypti test (AEDSAE surface treatment & contact assay); conditions: 24 hours after contact, read-out: efficacy (mortality); for mortality at 4 mg/m2: surface concentration 4 mg/m^2, exposure 30 minutes; for mortality at 20 mg/m2: surface concentration 20 mg/m^2, exposure 30 minutes
How it was run: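 Compound in acetone (2 mg/ml) with 2000 ppm RME pipetted onto glazed tile and dried; adult Aedes aegypti MONHEIM exposed 30 min. Percent mortality scored 24 h after contact.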

[2] = tested on: Musca domestica strain WHO-N; experiment: Musca domestica test (MUSCDO surface treatment & contact assay); conditions: 24 hours after contact, read-out: efficacy (mortality); for mortality at 4 mg/m2: surface concentration 4 mg/m^2, exposure 30 minutes; for mortality at 20 mg/m2: surface concentration 20 mg/m^2, exposure 30 minutes
Description: Musca domestica Test (MUSCDO Surface Treatment & Contact Assay)
(§1) Solvent: Aceton+2000 ppm rapeseed oil methyl ester (RME)
(§2) In order to produce a sufficient, active ingredient containing solution it is necessary to solve the test compound in the solvent-mix (acetone at 2 mg/ml/RME 2000 ppm). This solution is pipetted onto a glazed tile and after evaporation of the acetone, adult flies of the species Musca domestica strain WHO—N are placed onto the dried surface. The exposure time is 30 minutes. Mortality in percent (%) is determined 24 hours after contact of the insects to the treated surface. 100% mortality means that all tested insects are dead, whereas 0% means that no insect died.

[3] = tested on: larvae of the southern green stink bug (Nezara viridula); experiment: Nezara viridula spray test; conditions: 96 h, after 4 days; for mortality at 100 g/ha: application rate 100 g/ha; for mortality at 500 g/ha: application rate 500 g/ha
How it was run: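 Compound in acetone/dimethylformamide, diluted in water with 1000 ppm alkylarylpolyglycol ether emulsifier, sprayed onto barley plants carrying stink bug larvae. Mortality (%) scored after 4 days, 100% meaning all insects killed.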

[4] = tested on: green peach aphid (Myzus persicae); experiment: Myzus persicae spray test; conditions: 120 h, after 5 days; for mortality at 100 g/ha: application rate 100 g/ha; for mortality at 500 g/ha: application rate 500 g/ha
How it was run: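 Chinese cabbage leaf disks carrying all instars of M. persicae sprayed with compound in acetone/DMF, diluted in water with 1000 ppm alkylarylpolyglycol ether emulsifier. Percent mortality scored after 5 days (100% = all aphids killed).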

[5] = tested on: green peach aphid (Myzus persicae); experiment: Myzus persicae oral test; conditions: 120 h, application rate 4 ppm, after 5 days
How it was run: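 Compound was dissolved at 1 part by weight in 100 parts acetone, then diluted with water to test concentration and combined with IPL41 insect medium (33%+15% sugar). A mixed aphid population fed on this through a parafilm seal, and mortality (%) was scored after 5 days.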

[6] = tested on: brown planthopper (Nilaparvata lugens); experiment: Nilaparvata lugens spray test; conditions: 96 h, after 4 days; for mortality at 500 g/ha: application rate 500 g/ha; for mortality at 100 g/ha: application rate 100 g/ha
Description: Nilaparvata lugens—Spray Test
Solvent: 78.0 parts by weight of acetone • • 1.5 parts by weight of dimethylformamide
Emulsifier: alkylarylpolyglycol ether
To produce a suitable preparation of active compound, 1 part by weight of active compound is mixed with the stated amount of solvents and is diluted with water, containing an emulsifier concentration of 1000 ppm, to the desired concentration. Further test concentrations are prepared by dilution with emulsifier containing water.
Rice plants (Oryza sativa) are sprayed with a preparation of the active ingredient of the desired concentration and the plants are infested with the brown planthopper (Nilaparvata lugens).
After 4 days mortality in % is determined. 100% means all planthoppers have been killed and 0% means none of the planthoppers have been killed.

[7] = tested on: fall armyworm larvae (Spodoptera frugiperda); experiment: Spodoptera frugiperda spray test; conditions: 168 h, read-out: activity (mortality)
How it was run: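 Compound in acetone/DMF, diluted in water with 1000 ppm alkylarylpolyglycol ether emulsifier, sprayed on maize leaf sections. Dried leaves infested with fall armyworm larvae; % mortality after 7 days (100% = all killed, 0% = none).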

[8] = tested on: larvae of the banded cucumber beetle (Diabrotica balteata); experiment: Diabrotica balteata spray test; conditions: 168 h, after 7 days, read-out: activity (efficacy: seedlings grown); for pest or weed control at 100 g/ha: application rate 100 g/ha (=32 pg/well); for pest or weed control at 500 g/ha: application rate 500 g/ha (=160 pg/well)
How it was run: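 Wheat seedlings, germinated 1 day on agar (5 seeds/well), sprayed with active compound in acetone/DMF diluted in water containing 1000 ppm emulsifier, then infested with 10-20 D. balteata larvae. Efficacy (%) scored after 7 days: 100% = seedlings grown as untreated uninfested control, 0% = no seedlings grown.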

[9] = tested on: Rhipicephalus microplus larvae (strain Parkhurst, resistant against synthetic pyrethroids); experiment: Rhipicephalus (Boophilus) microplus in-vitro contact test, larval cattle tick; conditions: after 48 hours, read-out: activity (efficacy: larvae dead or moribund); for pest or weed control at 100 g/ha: application rate 1 pg/cm^2 (=100 g/ha); for pest or weed control at 500 g/ha: application rate 5 pg/cm^2 (=500 g/ha)
How it was run: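 Acetone solutions coated onto inner walls of glass tubes by rotation (900 ppm giving 5 μg/cm^2); after evaporation, 20-50 larvae added per tube and held at 27° C., 85% relative humidity. Efficacy read after 48 h from negative geotactic behaviour; 100% = all larvae dead or moribund.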

[10] = tested on: southern root-knot nematode (Meloidogyne incognita); experiment: Meloidogyne incognita test; conditions: 336 h, application rate 20 ppm, after 14 days, read-out: nematicidal activity (based on gall formation)
Description: Meloidoyne incognita—Test
Solvent: 125.0 parts by weight of acetone
To produce a suitable preparation of active compound, 1 part by weight of active compound is mixed with the stated amount of solvent, and the concentrate is diluted with water to the desired concentration.
Vessels are filled with sand, a solution of the active ingredient, a suspension containing eggs and larvae of the southern root-knot nematode (Meloidogyne incognita) and salad seeds. The salad seeds germinate and the seedlings grow. Galls develop in the roots.
After 14 days the nematicidal activity is determined based on the percentage of gall formation. 100% means no galls were found and 0% means the number of galls found on the roots of the treated plants was equal to that in untreated control plants.

[11] = tested on: adult engorged female ticks (Rhipicephalus microplus); experiment: Rhipicephalus (Boophilus) microplus injection test; conditions: 168 h, egg deposition after 7 days, read-out: activity (efficacy: infertile eggs); for pest or weed control at 4 pg: application rate 4 pg/animal; for pest or weed control at 0.02 mg: application rate 20 μg/animal
How it was run: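 Efficacy is scored from egg fertility, with 100% meaning every egg infertile and 0% every egg fertile. Five engorged females per test received 1 μL DMSO solution abdominally. Eggs of unclear fertility were kept until hatching, about 42 days.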

[12] = tested on: adult unfed cat fleas (Ctenocephalides felis); experiment: Ctenocephalides felis oral test; conditions: 48 h, read-out: activity (mortality)
How it was run: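 About 20 adult unfed fleas fed through parafilm on cattle blood containing compound (DMSO stock diluted in blood), blood held at 37 °C and fleas at room temperature. Mortality (%) scored after 2 days.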

[13] = tested on: adult cat fleas (Ctenocephalides felis); experiment: Ctenocephalides felis in-vitro contact test, adult cat flea; conditions: application rate 5 μg/cm^2 (=500 g/ha), after 48 hours, read-out: activity (efficacy: fleas dead or moribund)
How it was run: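 Acetone solutions of compound coated onto inner walls of glass tubes (900 ppm giving […]); after drying, 5-10 adult Ctenocephalides felis added and held at room temperature. At 48 h, fleas placed on a 45-50° C heating plate; those unable to climb away scored dead or moribund, expressed as % efficacy.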

[14] = tested on: adult brown dog ticks (Rhipicephalus sanguineus); experiment: Rhipicephalus sanguineus in-vitro contact test, adult brown dog ticks; conditions: after 48 hours, read-out: activity (efficacy: ticks dead or moribund); for pest or weed control at 5 µg/cm2, 500 g/ha: application rate 5 μg/cm^2 (=500 g/ha)
How it was run: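 Efficacy (%) reflects the fraction of adult ticks dead or moribund after 48 h of contact with a dried acetone film on tube walls at 5 μg/cm^2 (from 900 ppm). Moribund status was assessed by inability to climb away from heat at 45-50° C.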

[15] = tested on: Anopheles funestus strain FUMOZ-R; experiment: Anopheles funestus test (ANPHFU surface treatment & contact assay); conditions: 24 hours after contact, read-out: efficacy (mortality)
Description: Anopheles funestus Test (ANPHFU Surface Treatment & Contact Assay)
as §1
as §2, with “mosquitoes” for “flies”, “Anopheles funestus” for “Musca domestica”, “FUMOZ-R (Hunt et al., Med. Vet. Entomol. 2005 September; 19(3): 271-275)” for “WHO—N”

Row | Compound | mortality at 4 mg/m2 [2] [%] | mortality at 20 mg/m2 [2] [%] | mortality at 100 g/ha [3] [%] | mortality at 500 g/ha [3] [%] | mortality at 100 g/ha [4] [%] | mortality at 4 ppm [5] [%] | mortality at 500 g/ha [6] [%] | mortality at 100 g/ha [7] [%] | pest or weed control at 100 g/ha [8] [%] | mortality at 20 mg/m2 [1] [%] | pest or weed control at 100 g/ha [9] [%] | pest or weed control at 500 g/ha [9] [%] | pest or weed control at 20 ppm [10] [%] | pest or weed control at 4 pg [11] [%] | pest or weed control at 0.02 mg [11] [%] | mortality at 100 ppm [12] [%] | pest or weed control at 5 µg/cm2 [13] [%] | pest or weed control at 500 g/ha [8] [%] | other results
1 | C[C@H](NC(=O)c1cc(OC(F)(F)F)cc(S(C)(=O)=O)c1)c1nc(C2CC2)nn1-c1ccc(C#N)cn1 [I-81] | 80 to 100 | 80 to 100 | 100 | 100 | 90 | 100 | 100 | 100 | 100 | – | – | – | – | – | – | – | – | – | mortality at 4 mg/m2 [1]: 80 to 100%
2 | C[C@H](NC(=O)c1cc(OC(F)(F)F)cc(S(C)(=O)=O)c1)c1nc(C2CC2)nn1-c1ncc(Cl)cn1 [I-82] | 80 to 100 | 80 to 100 | 100 | 100 | 90 | 100 | 90 | 100 | 100 | 80 to 100 | – | – | – | – | – | – | – | – | –
3 | C[C@H](NC(=O)c1cc(C2CC2)cc(S(=O)(=O)C2CC2)c1)c1nc(C2CC2)nn1-c1ccc(C#N)cn1 [I-56] | – | – | – | – | – | – | – | 100 | – | – | 100 | 100 | 100 | – | – | – | – | – | –
4 | CCS(=O)(=O)c1cc(Cl)cc(C(=O)N[C@@H](C)c2nc(C(C)C)nn2-c2ccc(C#N)cn2)c1 [I-17] | – | – | – | – | – | – | – | – | – | – | 80 | 80 | 90 | 100 | 100 | 90 | – | – | –
5 | CC(NC(=O)c1cc(OC(F)(F)F)cc(C2CC2)c1)c1nc(Br)nn1-c1ccc(C#N)cn1 (stereo not drawn) [I-84] | – | – | – | – | – | – | – | 100 | 100 | – | – | – | 100 | – | – | – | – | – | –
6 | C[C@H](NC(=O)c1cc(C(F)(F)F)cc(S(C)(=O)=O)c1)c1nc(C2CC2)nn1-c1ccc(C#N)cn1 [I-64] | 80 to 100 | 80 to 100 | 100 | – | 100 | 100 | – | 100 | 100 | 80 to 100 | – | – | – | – | – | – | – | – | mortality at 100 g/ha [6]: 100%
7 | CCc1nc([C@H](C)NC(=O)c2cc(Cl)cc(S(C)(=O)=O)c2)n(-c2ccc(C#N)cn2)n1 [I-3] | – | – | – | 100 | 100 | 100 | 100 | 100 | – | 80 to 100 | 100 | 100 | – | – | 100 | 100 | 90 | 100 | mortality at 500 g/ha [4]: 100%; mortality at 500 g/ha [7]: 100%
8 | CC(NC(=O)c1cc(OC(F)(F)F)cc(C2CC2)c1)c1nc(I)nn1-c1ccc(C#N)cn1 (stereo not drawn) [I-83] | – | – | – | – | – | – | – | 100 | 100 | – | 100 | 100 | 100 | – | – | – | – | – | pest or weed control at 5 µg/cm2, 500 g/ha [14]: 80%
9 | COc1nc([C@H](C)NC(=O)c2cc(Cl)cc(S(C)(=O)=O)c2)n(-c2ccc(C#N)cn2)n1 [I-7] | – | – | 100 | 100 | 100 | 100 | 90 | 100 | 100 | – | 100 | 100 | – | 100 | 100 | 100 | 100 | 100 | mortality at 500 g/ha [4]: 90%; mortality at 500 g/ha [7]: 100%
10 | C[C@H](NC(=O)c1cc(C#N)cc(S(C)(=O)=O)c1)c1ncnn1-c1ncccn1 [II-28] | – | – | 100 | 100 | – | 100 | 100 | – | – | 80 to 100 | – | – | – | 100 | 100 | – | 100 | 100 | pest or weed control at 100 g/ha ([14]; application rate 1 pg/cm^2 (=100 g/ha)): 100%; pest or weed control at 5 µg/cm2, 500 g/ha [14]: 100%; mortality at 4 mg/m2 ([15]; surface concentration 4 mg/m^2, exposure 30 minutes): 80 to 100%; mortality at 20 mg/m2 ([15]; surface concentration 20 mg/m^2, exposure 30 minutes): 80 to 100%; mortality at 4 mg/m2 [1]: 80 to 100%; mortality at 100 g/ha [6]: 100%
